The target in one assay is T1, GST tagged PIP4KtypeIIA (Homo sapiens, UniProt P48426).
T1 construct: made in house; host or cells: E. coli
T1 sequence (P48426 1-406): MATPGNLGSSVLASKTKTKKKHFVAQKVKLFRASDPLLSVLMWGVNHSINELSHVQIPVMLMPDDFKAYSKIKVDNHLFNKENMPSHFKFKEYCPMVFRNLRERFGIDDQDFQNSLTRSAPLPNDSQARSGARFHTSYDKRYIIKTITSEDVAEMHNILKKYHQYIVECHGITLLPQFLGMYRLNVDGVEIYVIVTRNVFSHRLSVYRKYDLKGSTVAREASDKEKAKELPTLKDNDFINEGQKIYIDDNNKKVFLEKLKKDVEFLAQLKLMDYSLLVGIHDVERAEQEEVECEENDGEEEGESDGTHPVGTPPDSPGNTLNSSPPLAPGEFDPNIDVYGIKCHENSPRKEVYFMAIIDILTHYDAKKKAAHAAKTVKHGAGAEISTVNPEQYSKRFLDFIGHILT
Kind of assay: ADP-glo kinase assay PIP4K 2A (PIP4KtypeIIA inhibition assay). The conditions noted are these: Table 3; compounds listed under IC50 range headings; 10 uM ATP, 0.5 nM PIP4KIIA. It is filed as biochemical. From the text: GST tagged PIP4KtypeIIA and B enzymes were overexpressed in E. Coli and purified to >80% homogeneity. Phosphatidyl inositol-5-phosphate (PI5P, Cat. #850152, Avanti Polar Lipids Inc.) was used as the lipid substrate and phosphatidyl ethanolamine (DOPE 18:1, Cat. #850725, Avanti Polar Lipids Inc.) was used as the carrier lipid for assays. Ultrapure ATP and GTP was purchased from Bellbrooke Labs. ADP Glo reagents were obtained from Promega. Transcreener FI reagent was obtained from Bellbrooke labs.
1. HEPES buffer mix: 200 mM HEPES pH 7.4, 50 mM MgCl2, 0.05% v/v triton×100
2. HNE buffer: 20 mM HEPES, pH 7.4, 100 mM NaCl, 0.5 mM EGTA
3. H:E buffer: 30 mM HEPES, pH 7.4, 1 mM EGTA
Enzyme preparation: GST-tagged PIP4KtypeIIA (5 uL, 1.43 mg/mL) was diluted (1:10) to 50 uL using HNE buffer. From the 1:10 diluted stock, a 6.4 uL aliquot was diluted further to 5 mL using HNE buffer to yield 5× enzyme stock (2.5 nM).
Lipid Preparation: In a 10 mL pyrex glass vial, lug of PI5P and lug of DOPE were suspended in 2.5 mL of HEPES buffer mix and 2.5 mL of H:E buffer. The contents were mixed and sonicated for 3 min to yield a translucent lipid stock.
Compound Preparation: Compounds were stored as 5 mM stocks in neat DMSO as room temperature in glass vials. 5 mM stocks were diluted to 2 mM and then serially diluted (3×) in neat DMSO in 96 well polypropylene plates. From the serially diluted stocks, 3 uL was delivered into 250 uL of 25% DMSO (in water) to generate 5× compound stocks. Typically, the highest compound conc. was 24 uM.
The assay volume was kept at 25 uL. To each well of the reaction plate, 10 uL of lipid stock (1:1 ratio PI5P:DOPE) was delivered. This was followed by the addition of 5 uL of compound in 25% DMSO. Then, to each well, 5 uL of 2.5 nM (5×) typeIIA enzyme was delivered. The contents were mixed well and incubated for 1 h at 27 C. After 1 h, reaction was initiated by adding 5 uL of 50 uM ATP and the contents were mixed well with a multi-channel pipetteman. The final concentration of the reagents are as follows: 50 mM HEPES, pH 7.3, 10 mM MgCl2, 20 mM NaCl, 0.01% v/v triton-X100, 5% DMSO, 10 uM ATP, 80 uM (2 ug) PI5P, 2 ug DOPE, and 0.5 nM PIP4KIIA. Typically, the highest conc. of compounds was 4.8 uM and the lowest conc. was 0.
After 1 hr, the reaction was quenched by adding 25 uL of ADP Glo reagent. The contents were incubated for 1 hr. Afterwards, 50 uL of kinase detection reagent was delivered. The contents were incubated for another hour. The luminescence was read using Molecular Devices Paradigm plate reader. […] The blanks were averaged and subtracted from all other wells. Using a calibration curve, RLU was converted to uM ADP (product). IC50 was calculated by plotting the residual activity (expressed as % No inhibitor control) vs. log [Inh. conc.]

The target in a further assay is T2, GST tagged PIP4KtypeIIB (Homo sapiens, UniProt P78356).
T2 construct: made in house; host or cells: E. coli
T2 sequence (P78356 1-416): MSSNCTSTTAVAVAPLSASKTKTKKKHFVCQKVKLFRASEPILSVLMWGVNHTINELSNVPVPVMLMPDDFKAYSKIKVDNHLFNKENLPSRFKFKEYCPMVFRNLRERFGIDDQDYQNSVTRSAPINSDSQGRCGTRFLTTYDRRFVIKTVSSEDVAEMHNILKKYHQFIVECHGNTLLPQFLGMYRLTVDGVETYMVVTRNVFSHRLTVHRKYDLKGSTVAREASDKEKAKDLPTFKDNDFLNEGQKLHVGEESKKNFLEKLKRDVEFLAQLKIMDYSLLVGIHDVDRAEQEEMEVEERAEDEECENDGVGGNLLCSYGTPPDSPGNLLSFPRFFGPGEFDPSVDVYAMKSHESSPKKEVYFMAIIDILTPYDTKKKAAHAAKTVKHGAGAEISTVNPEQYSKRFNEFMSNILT
Description: Trans-FI P kinase assay PIP4K2B (PIP4KtypeIIB inhibition assay). The conditions noted are these: Table 4; compounds listed under IC50 range headings; 100 uM GTP, 5 nM PIP4KIIB; read-out: Trans-FI P kinase assays: PIP4K2B IC50. It is filed as biochemical. The essentials: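 Purified GST-PIP4KIIB (5 nM final), 1 h preincubation with compound at 27 C, then 2 h reaction with 100 uM GTP and 80 uM PI5P plus DOPE carrier lipid in pH 7.3 HEPES/MgCl2/Triton buffer with 5% DMSO. GDP read by Transcreener FI fluorescence against a calibration curve; IC50 from % no-inhibitor activity vs log concentration.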

The results in this text go back to patent US11919902B2, “Aryl-bipyridine amine derivatives as phosphatidylinositol phosphate kinase inhibitors” (HiberCell, Inc., priority 2017, dated 2024).

Where only a bound is given, the exact number is not on record here.

Turning to `CN(C)C(=O)c1cc2c(-c3cncc(-c4ccc(N5CCCC5=O)cc4)c3)cn(C)c2c(=O)n1C` [Example 260, N,N,1,6-tetramethyl-7-oxo-3-(5-(4-(2-oxopyrrolidin-1-yl)phenyl)pyridin-3-yl)-6,7-dihydro-1H-pyrrolo[2,3-c]pyridine-5-carboxamide], the IC50 against GST tagged PIP4KtypeIIA and on GST tagged PIP4KtypeIIB was 100 to 1000 nM each time.

Turning to `COC(=O)c1cc2c(-c3cncc(-c4ccc(N5CCCC5=O)cn4)c3)ccnc2[nH]1` [Example 248, methyl 4-(5-(2-oxopyrrolidin-1-yl)-[2,3′-bipyridin]-5′-yl)-1H-pyrrolo[2,3-b]pyridine-2-carboxylate], the IC50 (in general, the concentration at which inhibition is half-maximal) on GST tagged PIP4KtypeIIA was in the range of 1000 to 2500 nM; on GST tagged PIP4KtypeIIB it was 100 to 1000 nM.

In the case of `CCc1c(C)[nH]c2c(-c3cncc(-c4ccc(N5CCCC5=O)cc4)c3)cnn2c1=O` [Example 288, 6-ethyl-5-methyl-3-(5-(4-(2-oxopyrrolidin-1-yl)phenyl)pyridin-3-yl)pyrazolo[1,5-a]pyrimidin-7(4H)-one], the IC50 at GST tagged PIP4KtypeIIA and at GST tagged PIP4KtypeIIB was 100 to 1000 nM in each case.

For `CN1CCn2c(cc3c(-c4cncc(-c5ccc(N6C(=O)Cc7ccccc76)cc5)c4)ccnc32)C1=O` [Example 202, 7-methyl-4-(5-(4-(2-oxoindolin-1-yl)phenyl)pyridin-3-yl)-8,9-dihydropyrido[3′,2′:4,5]pyrrolo[1,2-a]pyrazin-6(7H)-one], the half-inhibitory concentration (IC50) against GST tagged PIP4KtypeIIA and on GST tagged PIP4KtypeIIB was above 5000 nM throughout.

Take `CN(C)C(=O)c1ccc(-c2cc(-c3ccnc4[nH]c(C(=O)NC5COC5)cc34)cnc2N)nc1` [Example 146, 4-(2′-amino-5-(dimethylcarbamoyl)-[2,3′-bipyridin]-5′-yl)-N-(oxetan-3-yl)-1H-pyrrolo[2,3-b]pyridine-2-carboxamide]: the values for the IC50 against GST tagged PIP4KtypeIIA and on GST tagged PIP4KtypeIIB were 100 to 1000 nM and 10 to 100 nM, respectively.

Turning to `O=C(NCc1ccncc1)c1cc2c(-c3cncc(-c4ccc(N5CCCC5=O)cc4)c3)ccnc2[nH]1` [Example 233, 4-(5-(4-(2-oxopyrrolidin-1-yl)phenyl)pyridin-3-yl)-N-(pyridin-4-ylmethyl)-1H-pyrrolo[2,3-b]pyridine-2-carboxamide], the concentration for half-maximal inhibition (IC50) lay within 100 to 1000 nM at GST tagged PIP4KtypeIIA and 10 to 100 nM on GST tagged PIP4KtypeIIB.

As for `O=C1CCCN1c1ccc(-c2cncc(-c3c4n(c5ncncc35)CCC4)c2)cc1` [Example 352, 1-(4-(5-(7,8-dihydro-6H-pyrimido[5,4-b]pyrrolizin-5-yl)pyridin-3-yl)phenyl)pyrrolidin-2-one], the half-inhibitory concentration (IC50) against GST tagged PIP4KtypeIIA and on GST tagged PIP4KtypeIIB was 10 to 100 nM throughout.

As for `O=C(NCCc1ccncc1)c1cc2c(-c3cncc(-c4ccc(N5CCCC5=O)cc4)c3)ccnc2[nH]1` [Example 247, 4-(5-(4-(2-oxopyrrolidin-1-yl)phenyl)pyridin-3-yl)-N-(2-(pyridin-4-yl)ethyl)-1H-pyrrolo[2,3-b]pyridine-2-carboxamide], the IC50 at GST tagged PIP4KtypeIIA lay within 100 to 1000 nM; at GST tagged PIP4KtypeIIB it was 10 to 100 nM.

Regarding `Cc1cc(N2CCCC2=O)ccc1-c1cncc(-c2cn(C)c3ncc([C@@H](C)O)cc23)c1` (single isomer, unassigned) [197(R)], the IC50 against GST tagged PIP4KtypeIIA lay within 100 to 1000 nM; at GST tagged PIP4KtypeIIB, 1000 to 2500 nM.

`Cc1nn2c(=O)c(CCO)c(C)[nH]c2c1-c1cncc(-c2ccc(N3CCCC3=O)cc2)c1` [Example 284, 6-(2-hydroxyethyl)-2,5-dimethyl-3-(5-(4-(2-oxopyrrolidin-1-yl)phenyl)pyridin-3-yl)pyrazolo[1,5-a]pyrimidin-7(4H)-one]: the IC50 against GST tagged PIP4KtypeIIA and at GST tagged PIP4KtypeIIB was 100 to 1000 nM in each case.

Turning to `Cc1c(-c2ccc(N3CCCC3=O)cc2)cncc1-c1cn(C)c2ncc([C@H](C)O)cc12` (single isomer, unassigned) [196(S)], the IC50 on GST tagged PIP4KtypeIIA and at GST tagged PIP4KtypeIIB was 100 to 1000 nM each time.

For the molecule `CC(C)c1[nH]c2ncc(C(=O)N(C)C)cc2c1-c1cncc(-c2ccc(N3CCCC3=O)cc2)c1` [Example 269, 2-isopropyl-N,N-dimethyl-3-(5-(4-(2-oxopyrrolidin-1-yl)phenyl)pyridin-3-yl)-1H-pyrrolo[2,3-b]pyridine-5-carboxamide], the IC50 against GST tagged PIP4KtypeIIA and on GST tagged PIP4KtypeIIB was 100 to 1000 nM each time.

As for `CCc1ccc2c(c1)N(c1ccc(-c3cncc(-c4ccnc5c4cc4n5CCN(C)C4=O)c3)cc1)C(=O)C2` [Example 151, 4-(5-(4-(6-ethyl-2-oxoindolin-1-yl)phenyl)pyridin-3-yl)-7-methyl-8,9-dihydropyrido[3′,2′:4,5]pyrrolo[1,2-a]pyrazin-6 (7H)-one], the concentration for half-maximal inhibition (IC50) at GST tagged PIP4KtypeIIA and on GST tagged PIP4KtypeIIB was above 5000 nM throughout.

Consider `COC(=O)c1cc2c(-c3cncc(-c4ccc(N5CCCC5=O)cc4)c3)c(Cl)cnc2[nH]1` [Example 296, methyl 5-chloro-4-(5-(4-(2-oxopyrrolidin-1-yl)phenyl)pyridin-3-yl)-1H-pyrrolo[2,3-b]pyridine-2-carboxylate], for which the IC50 against GST tagged PIP4KtypeIIA and on GST tagged PIP4KtypeIIB was 100 to 1000 nM in each case.

Regarding `CN1CCn2c(cc3c(-c4cncc(-c5ccc(N6CC7(CC7)CC6=O)cc5)c4)ccnc32)C1=O` [Example 201, 7-methyl-4-(5-(4-(6-oxo-5-azaspiro[2.4]heptan-5-yl)phenyl)pyridin-3-yl)-8,9-dihydropyrido[3′,2′:4,5]pyrrolo[1,2-a]pyrazin-6(7H)-one], the IC50 at GST tagged PIP4KtypeIIA fell in the range of 100 to 1000 nM; on GST tagged PIP4KtypeIIB, 10 to 100 nM.

With `CN(C)C(=O)c1ccc(-c2cc(-c3ccnc4[nH]c(C(=O)NCCc5ncc[nH]5)cc34)cnc2N)nc1` [Example 150, N-(2-(1H-imidazol-2-yl)ethyl)-4-(2′-amino-5-(dimethylcarbamoyl)-[2,3′-bipyridin]-5′-yl)-1H-pyrrolo[2,3-b]pyridine-2-carboxamide], the values for the IC50 at GST tagged PIP4KtypeIIA and on GST tagged PIP4KtypeIIB were 100 to 1000 nM and 10 to 100 nM, respectively.

With `CN(C)C(=O)c1cnc2c(c1)c(-c1cncc(-c3ccc(N4CCCC4=O)cc3)c1)c(C1CC1)n2C` [Example 262, 2-cyclopropyl-N,N,1-trimethyl-3-(5-(4-(2-oxopyrrolidin-1-yl)phenyl)pyridin-3-yl)-1H-pyrrolo[2,3-b]pyridine-5-carboxamide], the IC50 on GST tagged PIP4KtypeIIA was 2500 to 5000 nM; on GST tagged PIP4KtypeIIB, 100 to 1000 nM.

For the molecule `CN(C)C(=O)c1ccc(-c2cc(-c3cc(Nc4cc(N)ccn4)ncn3)cnc2N)nc1` [Example 222, 2′-amino-5′-(6-((4-aminopyridin-2-yl)amino)pyrimidin-4-yl)-N,N-dimethyl-[2,3′-bipyridine]-5-carboxamide], the IC50 is above 5000 nM against GST tagged PIP4KtypeIIA and 2500 to 5000 nM on GST tagged PIP4KtypeIIB.
